Tests used:
tubulin [1] = assay: inhibition of tubulin polymerization in vitro (turbidity at 350 nm); assay type: biochemical; details: read-out: IC50 (concentration required to inhibit tubulin polymerization by 50%); mean ± S.D.; method of Example 1
Method: Anti-mitotic activity can be evaluated by testing the ability of an estradiol derivative to inhibit tubulin polymerization and microtubule assembly in vitro. Microtubule assembly is followed in a Gilford recording spectrophotometer (model 250 or 2400S) equipped with electronic temperature controllers. A reaction mixture (all concentrations refer to a final reaction volume of […]) contains 1.0 M monosodium glutamate (ph 6.6), 1. omg/ml (10 μM) tubulin, 1.0 mM MgCl2, 4% (v/v) dimethylsulfoxide and 20-75μM of a composition to be tested. The 0.24 ml reaction mixtures are incubated for 15 min. at 37° C. and then chilled on ice. After addition of 10p1 2.5mM GTP, the reaction mixture is transferred to a cuvette at 0° C., and a baseline established. At time zero, the temperature controller of the spectrophotometer is set at 37° C. Microtubule assembly is evaluated by increased turbity at 350 nm.
A. Each reaction mixture (all concentrations refer to the final reaction volume of 0.25 ml) contained 1.0 M monosodium glutamate (pH 6.6), 1.0 mg/ml (10 μM) tubulin, 1.0 mM MgCl2, 4% (v/v) dimethylsulfoxide, and either 0 (curve 1), 20μM (curve 2), 40 μM (curve 3), or 75 μM (curve 4) 2-methoxyestradiol. The 0.24 ml reaction mixtures were incubated for 15 min. at 37° C and chilled on ice. After addition of 10 μl of 2.5 mM GTP the reaction mixtures were transferred to cuvettes held at 0° C., and baselines were established. At time zero the temperature controller was set at 37° C. At the times indicated by the vertical dashed lines the temperature controller was set at the indicated temperatures.
B. Each reaction mixture contained 0.8 M monosodium glutamate (pH 6.6), 1.2 mg/ml (12 μM) tubulin, 4% (v/v) dimethylsulfoxide, and either 0 (curve 1), 1.0 FM (curve 2), 2.0 ,M (curve 3), 3.0 μM (curve 4), or 4.0 μM (curve 5) 2-methoxyestradiol. The 0.24 ml reaction mixtures were incubated for 15 min. at 26° C. and chilled on ice. After addition of 10μl of 10 mM GTP the reaction mixtures were transferred to cuvettes held at 0° C., and baselines were established. At time zero the temperature controller was set at 26° C. At the time indicated by vertical dashed line the temperature controller was set at 0° C.
The method is given in Example 1.
S.D., standard deviation.

tubulin [2] = assay: inhibition of [3H]colchicine binding to tubulin; details: 100 μM inhibitor, 1.0 μM tubulin, 2 μM [3H]colchicine, 10 min at 37° C.; ± S.D.
Method: Incubation was for 10 min. at 37° C.
Incubation was for 10 mi. at 37° C. Average values obtained in three independent experiments are presented in the table, except for 2-methoxyestrone, which was only examined twice. S.D., standard deviation.

tubulin [3] = assay: tubulin activities of 2-ME analogs (Table 3); assay type: biochemical
[4] = tested on: 8 human breast cancer cell lines; assay: human tumor cell panel assay in vitro, breast panel; assay type: cell-based; design: key to Most Sensitive Cell Lines in Human Tumor Cell Panel Assay: Breast: Most sensitive cell panes are marked with ✓; details: for Most Sensitive Cell Lines in Human Tumor Cell Panel Assay: Breast: 8 cell lines, only MCF-7 and T-47D express estrogen and progesterone receptors
From the text: (§1) The tubulin activities, breast cancer cell line activities, and the cell panels most sensitive to selected analogs are shown in Tables 3 and 4.

[5] = target: T1, rat uterine cytosolic estrogen receptor (Rattus norvegicus, UniProt P06211); assay: Relative Binding Affinity to estrogen receptor; details: at 0°; 3H-Estradiol=100
T1 construct: from tissue; host or cells: rat uterine cytosol (per the result head)
T1 sequence (P06211 1-600): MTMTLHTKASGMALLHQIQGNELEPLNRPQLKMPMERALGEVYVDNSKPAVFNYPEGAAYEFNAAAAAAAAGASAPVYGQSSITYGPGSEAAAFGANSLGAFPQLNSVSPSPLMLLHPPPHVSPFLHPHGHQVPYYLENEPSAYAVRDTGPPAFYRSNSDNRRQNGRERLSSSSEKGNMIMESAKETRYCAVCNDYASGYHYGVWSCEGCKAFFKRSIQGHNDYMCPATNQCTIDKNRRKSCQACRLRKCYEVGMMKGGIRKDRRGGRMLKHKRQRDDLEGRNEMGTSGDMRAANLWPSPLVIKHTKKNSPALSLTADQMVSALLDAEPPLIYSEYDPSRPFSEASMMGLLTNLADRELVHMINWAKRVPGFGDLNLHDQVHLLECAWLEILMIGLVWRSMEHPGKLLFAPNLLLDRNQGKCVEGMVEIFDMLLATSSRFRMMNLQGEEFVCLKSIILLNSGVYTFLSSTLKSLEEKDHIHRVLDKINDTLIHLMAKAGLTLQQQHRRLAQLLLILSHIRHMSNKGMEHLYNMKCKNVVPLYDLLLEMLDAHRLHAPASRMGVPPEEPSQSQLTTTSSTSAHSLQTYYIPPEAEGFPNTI
From the text: as §1

CNS cell lines = assay: Human Tumor Cell Panel Assay in vitro, CNS panel; assay type: cell-based; design: key: Most sensitive cell panes are marked with ✓
From the text: as §1

Melanoma cell lines = assay: Human Tumor Cell Panel Assay in vitro, melanoma panel; assay type: cell-based; design: key: Most sensitive cell panes are marked with ✓
From the text: as §1

Renal cell lines = assay: Human Tumor Cell Panel Assay in vitro, renal panel; assay type: cell-based; design: key: Most sensitive cell panes are marked with ✓
From the text: as §1

[6] = tested on: Ovarian cell lines (especially OVCAR-3); assay: Human Tumor Cell Panel Assay in vitro, ovarian panel; assay type: cell-based; design: key: Most sensitive cell panes are marked with ✓
From the text: as §1

[7] = tested on: MDA-MB-435 estrogen receptor-negative human breast carcinoma cells; assay: In Vivo Tumor Growth Inhibition; design: species or system SCID mice
Method: To determine the antitumor activity of 2-ME and derivatives, SCID mice were s.c. inoculated with 10^6 MDA-MB-435 estrogen receptor-negative human breast carcinoma cells. Treatment was initiated on day 12 when tumor volumes reached 75-100 mm3 in volume. Drugs were suspended in 0.5 g/100 ml of carboxymethylcellulose with sterile glass beads, vortexed for 5 minutes, and administered p.o. in a volume of 0.1 ml. Control mice received 0.1 ml of carboxymethylcellulose p.o. Serial caliper measurements of perpendicular diameters were used to calculate tumor volume using the following: (shortest diameter)^2×(longest diameter)×0.52. T/C was calculated as the volume of treated tumors over the volume of control tumors. A smaller number indicates a greater inhibition of tumor growth.

[8] = tested on: corneal neovascularization; assay: Mouse Corneal Micropocket Assay; assay type: in vivo, mice; details: 150 mg/kg, daily oral, 5 days
Method: Five- to 7-week-old SCID female mice were obtained from Massachusetts General Hospital (Boston, Mass.), Immunocompetent 7-9-week-old female C57BL/6 mice were obtained from ARCH Technical Services, Children's Hospital (Boston, Mass.). All animal studies were conducted according to protocols approved by the Animal Ethics Committee of Children's Hospital. Animals were anesthetized in a methoxyflurane (Pittman-Moore, Mundelein, Ill.) chamber prior to all procedures and were observed until fully recovered. Animals were sacrificed by a lethal dose of methoxyflurane.
Mouse Corneal Micropocket Assay To study the effect of microtubule inhibitors on angiogenesis in vivo, a model of angiogenesis in the mouse cornea was used in […] mice as described previously (Kenyon, B. B., Voest, E. E., Chen, C. C., Folkman, J., and D'Amato, R. J. A model of angiogenesis in the mouse cornea. Invest. Ophthalmol. & Visual Sci., 76: 1625-1632, 1996). In brief, after animals were anesthetized, corneal micropockets were created in both eyes with a modified von Graefe cataract knife. Into each pocket, a 0.4 mm ×0.4 mm×0.2 mm sucrose aluminum sulfate (Bukh Meditee, Copenhagen, Denmark) pellet coated with hydron polymer type NCC (IHN Sciences, New Brunswick, N.J.) containing 80 ng of bFGF or 160 ng of human recombinant […] (gift from Reprogenesis, Cambridge, Mass.) was implanted 1.0-1.2 mm from the limbal vessels (bFGF experiments) or 0.5-0.7 mm from the limbus (VEGF experiments). Erythromycin ointment (E. Fougera, Melville, N.Y.) was applied to each operated eye. The sucralfate acts to stabilize the growth factor and to slow its release from the hydron. Before testing each drug in this assay, we found the maximal dose that could be administered daily for 5 consecutive days without producing signs of toxicity (i.e., no hair loss, diarrhea, infection, lethargy, or weight loss). The treated groups received daily oral administration for 5 consecutive days of the stated dosage of 2-ME or a derivative thereof suspended in 0.5 g/100 ml of carboxymethylcellulose.
Treatment was started on the day of pellet implantation. […] For this purpose, the eyes of the mice were examined by slit-lamp biomicroscopy. Area of corneal neovascularization was calculated using a modified formula for a half-ellipse: Area (mm^2)=[π×clock hours×length (mm)×0.2 mm]. This formula provides the most accurate approximation of the area of neovascularization that grows toward the pellet. (Kenyon, B. B., Voest, E. E., Chen, C. C., Folkman, J., and D'Amato, R. J. A model of angiogenesis in the mouse cornea. Invest. Ophthalmol. & Visual Sci., 76: 1625-1632, 1996).

Structure (SMILES)	IC50 (tubulin [1])	Percentage Inhibition of colchicine binding to tubulin (tubulin [2])	IC50 (tubulin [3])	RBA, Relative Binding Affinity to rat uterine cytosolic estrogen receptor [5]	Most Sensitive Cell Lines in Human Tumor Cell Panel Assay: Breast [4]	Most Sensitive Cell Lines in Human Tumor Cell Panel Assay: CNS (CNS cell lines)	Most Sensitive Cell Lines in Human Tumor Cell Panel Assay: Melanoma (Melanoma cell lines)	Most Sensitive Cell Lines in Human Tumor Cell Panel Assay: Renal (Renal cell lines)	Most Sensitive Cell Lines in Human Tumor Cell Panel Assay: Ovarian [6]	inhibition in corneal pocket assay [8]	other results
COc1cc2c(cc1O)CCC1C2CCC2(C)C(=O)CCC12 (stereo not shown) [2-Methoxyestrone, reference compound]	8800 ± 1000 nM	57 ± 6%									
C#CC1(O)CCC2C3CCc4cc(O)ccc4C3CCC21C (stereo not shown) [17-Ethynylestradiol, reference compound]	10000 ± 2000 nM	50 ± 7%									
CCNc1cc2c(cc1O)CCC1C2CCC2(C)C(O)CCC12 (stereo not shown) [NSC 673652]			~2000 nM	0.35							IC50 ([4]; Homo sapiens, cell panel assay in vitro, two values per cell separated by /, read-out: Tumor Panel: Average log IC50(Molar) against 8 human breast cancer cell lines (converted)): 2000 nM; Tumor Panel: Average log IC50(Molar) against 8 human breast cancer cell lines ([4]; cell panel assay in vitro, two values per cell separated by /): −5.7/−5.7 log Molar
CCOc1cc2c(cc1O)C(=NO)CC1C2CCC2(C)C(O)CCC12 (stereo not shown) [NSC 680185]				<0.001	✓	✓	✓	✓	✓		T/C (volume of treated tumors over volume of control tumors) ([7]; 150 mg/kg p.o., duration not stated): 0.9
C[C@]12CC[C@@H]3c4cc(OCC(F)(F)F)c(O)cc4/C(=N/O)C[C@H]3[C@@H]1CC[C@@H]2O [NSC 681683]			500 nM	<0.0074	✓	✓	✓		✓	22%	tumor growth inhibition, comparison in words (FIG. 4) ([7]; FIG. 4): performed approximately as well as the derivative 681684
CCOc1cc2c(cc1O)C(=NOC)CC1C2CCC2(C)C(O)CCC12 (stereo not shown) [NSC 683125]				<0.001	✓		✓	✓		23%	
